Results: patent publication US12453728B1, “Compositions comprising inhibitors of microsomal triglyceride transfer protein and Apo-B secretion” (Redux Therapeutics, LLC, priority 2024, dated 2025)

Assays:
[1] = Effect of Compound 3 on steady-state pharmacokinetics of olanzapine; assay type: in vivo, human; details: 200 mg Compound 3 BID with 10 mg olanzapine; days 8 and 15
Experimental: Postprandial triglycerides and lipid profiles were assessed on study days 1, 8, and 15, olanzapine pharmacokinetics was assessed on study days 8 and 15, and safety and tolerability were assessed throughout. On each of these study days, subjects consumed a standardized breakfast (˜900 kcal; 55% of kcal from fat) in 15 minutes. Blood samples were drawn prior to meal consumption and 1, 2, 3, 4, 6 and 8 hours after initiation of meal.

[2] = Lipid profile and glucose; details: for glucose: olanzapine study, healthy volunteers
[3] = Body weight change during olanzapine treatment
[4] = Postprandial triglycerides after a standardized breakfast in subjects treated with olanzapine; details: normal healthy volunteers; 10 mg olanzapine alone, or 10 mg olanzapine + 200 mg Compound 3 BID (days 8-15)
[5] = in vivo

Structure (SMILES) | impact on the pharmacokinetic profile of olanzapine [1] | LDL-C ([2]; Day 9-15, olanzapine alone vs olanzapine + Compound 3) | glucose [2] | blunting of body weight gain from olanzapine ([3]; second week of the study, 10 mg olanzapine + 200 mg Compound 3 BID) | postprandial triglycerides [4] | SAEs, fatal events, discontinuations due to adverse events [5] | weight gain during the first week of treatment ([3]; normal healthy volunteers, 10 mg olanzapine alone, first week)
COc1cccc(C(=O)Nc2ccc3c(c2)CCN(C(=O)Oc2ccccc2)C3)c1-c1ccc(C(F)(F)F)cc1 [Compound 3] | did not significantly impact | blunted | No changes in glucose were observed | significant blunting in body weight gain | greatly reduced postprandial triglycerides |  | 
Cc1cc2c(s1)Nc1ccccc1N=C2N1CCN(C)CC1 [olanzapine, reference compound] |  |  | No changes in glucose were observed |  |  | No SAEs, fatal events, or discontinuations due to adverse events | significant weight gain
